Measurements taken from patent publication US20250034614A1, “PERSISTER CONTROL BY LEVERAGING DORMANCY ASSOCIATED REDUCTION OF ANTIBIOTIC EFFLUX” (Syracuse University, priority 2021, published 2025).
Where two headings read alike, the source gives them in different places.

Experiments:
[1] = tested on: E. coli HM22 normal cells; assay: Killing of normal (exponential phase) cells, CFU by drop plate; format: cell-based, Escherichia coli; details: for normal cells killed: 100 μg/mL, 1 h in PBS
[2] = tested on: E. coli HM22 normal and persister cells; details: for intracellular accumulation, persister cells relative to normal cells: treated at 100 μg/mL, reporter bioassay
[3] = tested on: E. coli HM22 persister cells; format: cell-based, Escherichia coli; details: for persister cells killed: 1 h in PBS, relative to untreated
[4] = tested on: E. coli HM22 persister cells; assay: LIVE/DEAD staining of persister cells during treatment and wake-up; format: cell-based, Escherichia coli; details: 100 μg/mL treated, washed
Description: . The present invention thus hypothesized that the killing effects took place during persister wake-up when the external antibiotic was withdrawn (after the treated cells were plated on antibiotic-free agar plates in this test). […] . […] .
Treated and untreated samples were washed once with PBS (pH 7.4). Cells were then immediately labeled with LIVE/DEAD BacLight bacterial viability kit (Life Technologies Inc., Carlsbad, CA) with a final concentration of 7.5 μM SYTO9 and 30 μM propidium iodide. After 15 min of staining, the cells were pelleted to remove the staining solution, re-suspended in PBS and vortexed briefly. Labeled cells were then imaged on microscope slides using an Axio Imager M1 fluorescence microscope (Axio Imager M1 fluorescence microscope, Carl Zeiss Inc., Berlin, Germany) with an Orca-Flash 4.0 LT camera (Hamamatsu Photonics, Hamamatsu City, Japan). At least 5 random spots were imaged for each sample. The mean gray value intensity was used to calculate the mean intensity generated from each channel (green and red). Each condition was tested with three biological replicates and 5 images were randomly taken from each sample.

[5] = tested on: E. coli JW4364 (ΔacrA mutant); assay: Killing of normal cells of efflux mutant ΔacrA; details: 100 μg/mL
Description: (§1) The mid-exponential phase cultures were collected by centrifugation at 13,000 rpm for 3 min at room temperature. The amount of cells used for each treatment was adjusted to OD600 of 0.5 in 500 μL. They were then washed with PBS (pH 7.4) three times. […] Relative viability was normalized by the untreated population. Each experimental condition was tested with five biological repeats.

[6] = tested on: E. coli HM22 persister cells; assay: Concurrent treatment with ampicillin in LB compared with ampicillin alone; format: cell-based, Escherichia coli; details: concurrent 100 μg/mL ampicillin and 100 μg/mL test antibiotic
Description: E. coli HM22 was used as the model strain in this test because it contains the hipA7 allele that leads to high-level persistence.

[7] = tested on: E. coli JW5503 (ΔtolC mutant); assay: Killing of normal cells of efflux mutant ΔtolC; details: 100 μg/mL
Description: as §1

[8] = tested on: E. coli JW5536 (ΔacrB mutant); assay: Killing of normal cells of efflux mutant ΔacrB; details: 100 μg/mL
Description: as §1

[9] = tested on: E. coli HM22 normal cells; details: 100 μM CCCP 10 min, then 100 μg/mL minocycline 1 h
Description: Carbonyl cyanide m-chlorophenylhydrazone (CCCP) was used to depotentiate the membrane of E. coli normal cells and thus, mimic the change in membrane potential of persister cells. CCCP dissipates the PMF by allowing protons to leak across the membrane and thus inactivate efflux pumps. […] An overnight culture of E. coli HM22 was sub-cultured in LB medium supplemented with DPA with a starting OD600 of 0.05 until OD600 reached 0.3-0.45. The mid-exponential culture was collected by centrifugation at a speed of 13,000 rpm for 3 min at room temperature. […] Each experimental condition was tested with three biological replicates.

[10] = Validation of chloroform extraction (partition coefficient); details: concentration in chloroform phase over aqueous phase
Description: To validate if chloroform is effective in extracting the antibiotics after cell lysis, a validation test was performed. Briefly, 100 μL of antibiotic solution was mixed with 100 μL chloroform in a microcentrifuge tube by vortexing. Then the solution was centrifuged for 5 min at 5,000×g. […] Each phase was collected separately and evaporated overnight in a desiccator. […] The samples were then transferred to a 96-well plate where absorbance readings were measured using an Epoch 2 Microplate Spectrophotometer (BioTek, Winooski, VT, USA). […] The concentrations were then calculated by comparing with a standard curve of absorbance with known concentrations of corresponding antibiotic.

AcrAB-TolC mutants = assay: Killing of efflux mutants compared with wild-type (in words); format: cell-based, Escherichia coli; details: normal cells of ΔacrA, ΔacrB, ΔtolC
E. coli HM22 = assay: IC50 of killing, individual treatments vs co-treatment; format: cell-based; details: Escherichia coli, read-out: IC50 (concentration required to kill 50% of the population)
[11] = tested on: E. coli HM22 persister cells; assay: Growth and CFU of treated persister cells during wake-up in LB
Description: At each designated time point, 1 mL of the cell culture was collected, washed with PBS, and centrifuged at a speed of 13,000 rpm for 3 min. Treated persister cells and untreated controls were washed and resuspended with LB medium supplemented with DPA, and incubated at 37° C. with shaking at 200 rpm. At each designated time point, samples were collected to quantify intracellular antibiotic concentration as described above and to determine growth by measuring OD600.

purified 70S ribosome = details: read-out: IC50 (concentration of the antibiotic needed to inhibit 50% of the purified 70S ribosome); cited from earlier work
[12] = after treatment at 100 μg/mL for 1 h

Structure (SMILES) | normal cells killed [1] | intracellular concentration in normal cells ([2]; after treatment at 100 μg/mL) [µg/mL] | intracellular concentration in persister cells ([2]; after treatment at 100 μg/mL) [µg/mL] | intracellular accumulation, persister cells relative to normal cells [2] [times] | persister cells killed ([3]; 100 μg/mL) [%] | additional killing compared to 100 μg/mL ampicillin alone [6] [%] | intracellular concentration in normal cells [2, 12] [µg/mL] | intracellular concentration in persister cells [2, 12] [µg/mL] | persister cells killed ([3]; 30 μg/mL) [%] | persister cells killed ([3]; 50 μg/mL) [%] | IC50 (E. coli HM22) [µg/mL] | also measured
CO[C@H]1/C=C/O[C@@]2(C)Oc3c(C)c([O-])c4c(O)c(cc(O)c4c3C2=O)NC(=O)/C(C)=C\C=C\[C@H](C)[C@H](O)[C@@H](C)[C@@H](O)[C@@H](C)[C@H](OC(C)=O)[C@@H]1C.[Na+] [rifamycin SV] | did not kill | 4.3 ± 0.9 | 14.0 ± 4.5 | 3.2 | 75.0±5.12 | – | – | – | – | – | – | –
CN(C)c1ccc(O)c2c1C[C@H]1C[C@H]3[C@H](N(C)C)C(O)=C(C(N)=O)C(=O)[C@@]3(O)C(O)=C1C2=O [minocycline] | – | – | 26.9 ± 0.7 | – | 70.8±5.9 | 68 | 1.04e-05 ± 2.2e-06 | 2.64e-05 ± 3.5e-06 | 47.8±5.3 | 59.0±6.0 | – | red/total fluorescence of treated persister cells ([4]; 0 min after adding LB): 20.2±3.3%; red/total fluorescence of treated persister cells ([4]; 30 min incubation with added LB): 37.9±3.0%; normal cells of ΔacrA killed [5]: 98.6±0.3%; normal cells of ΔtolC killed [7]: 99.7±0.03%; normal cells of ΔacrB killed [8]: 99.9±0.01%; normal cells killed after CCCP pretreatment [9]: 95.9±2.5%; intracellular concentration in persister cells after wake-up ([2]; 4 h after washing the cells and adding LB medium): 26.8 ± 3.2 pg/mL
CN(C)[C@@H]1C(O)=C(C(N)=O)C(=O)[C@@]2(O)C(O)=C3C(=O)c4c(O)c(NC(=O)CN5CCCC5)cc(F)c4C[C@H]3C[C@@H]12 [eravacycline] | 63.5±15.8% | 24.2 ± 1.7 | 92.1 ± 4.4 | 3.8 | 99.9±0.03 | 99.9 | – | – | 50.9±7.7 | 98.2±0.5 | 4.8 | Partition Coefficient [10]: 3.0 ± 0.3; killing of efflux mutants compared to the wild-type strain (in words) (AcrAB-TolC mutants): more killing; killing of normal cells (in words) ([1]; concentrations below 100 μg/mL (0-50 μg/mL)): no significant killing; regrowth of treated persister cells after removal of extracellular antibiotic and adding LB (in words) ([11]; OD600 / growth): unable to resume growth; decrease of CFU of treated persister cells after removal of extracellular antibiotic and addition of nutrient ([11]; over 8 hours): 97.1±0.9%; killing of persister cells in logs ([3]; 100 μg/mL): 3 log; IC50 (purified 70S ribosome): 200 ± 100 nM
CN(C)[C@@H]1C(O)=C(C(N)=O)C(=O)[C@@]2(O)C(O)=C3C(=O)c4c(O)cccc4[C@@](C)(O)[C@H]3C[C@@H]12 [tetracycline] | – | – | – | – | – | – | 5.5e-06 ± 1e-07 | 1.6e-06 ± 8e-07 | – | – | – | –
CC1(C)S[C@@H]2[C@H](NC(=O)[C@H](N)c3ccccc3)C(=O)N2[C@H]1C(=O)O [ampicillin] | – | – | – | – | – | – | – | – | – | – | 1 | –
